Values of other authors, collected in patent US9491955B2, “Balanced myristate- and laurate-containing edible oil” (Brandeis University, priority 2008, dated 2016).

System: rats
Settings: trimyristin component of a blend with peanut oil

Structure (SMILES): CCCCCCCCCCCCCC(=O)OCC(COC(=O)CCCCCCCCCCCCC)OC(=O)CCCCCCCCCCCCC [trimyristin]
- Decrease of cholesterol-raising capacity by interesterification with GNO: 34%
